pIC50: −log10 of the molar value.
These molecules were tested against T1, DNA polymerase catalytic subunit (Human cytomegalovirus (strain AD169) (HHV-5) (Human herpesvirus 5), UniProt P08546) (assay: HCMV Polymerase LANCE TR-FRET Assay: The assay conditions are the following: 10 mM HEPES pH 7.5, 25 mM KCl, 7.5 mM NaCl, 5 mM MgCl2, 0.2 mg BSA/mL, 1 mM TCEP, 1.5% glycerol, 5% DMSO, 235 nM dATP, 350 nM dCTP, 350 nM dGTP, 235 nM dTTP, 12 nM biotin-16-dUTP, 23.5 nM Dig-primer/template, 2 nM GST-UL54. The assay volume is 10 μL. Each reagent is added as follow: 4 μL a+3 μL b+3 μL c; a: compound diluted in compound dilution buffer to obtain 12.5% DMSO; b: enzyme (GST-UL54) in 10 mM Hepes pH 7.5, 25 mM KCl, 5 mM MgCl2, 25 mM NaCl, 5% Glycerol, 0.67 mg BSA/mL, 1 mM TCEP w/o DMSO (2 nM GST-UL54 is present in the assay); c: substrate in 10 mM HEPES pH 7.5, 25 mM KCl, 5 mM MgCl2, 1 mM TCEP, 783 nM dATP, 1166 nM dCTP, 1166 nM dGTP, 783 nM dTTP, 40 nM biotin-16-dUTP, 78 nM Dig-primer (5'-/Dig/AGC TCG TTT AGT GAA CC-3')/template (5'-GAGGTCAAAACAGCGTGGATGGCGTCTCCAGGCGATCTGACGGTTCACTAAACGAGCT-3') w/o DMSO. The primer and template are annealed in 10 mM Tris-HCl pH 7.5, 50 mM NaCl at a respective concentration of 50 μM. They are incubated at 95 °C. for 5 min in a dry batch block. The block is removed from the dry bath and allowed to cool to RT. Aliquots are made and stored at −20 °C. To perform the assay, 3 μL of the enzyme solution is added to columns 2-12 and 14-24. The enzyme is substituted by the blank solution (b solution without enzyme) for columns 1 and 13 (blanks). The plate is centrifuged at 200×g for 30 sec. 3 μL of substrate solution is added to each well. The plate is centrifuged at 200×g for 30 sec. Plates are incubated at 37 °C. for 30 min. 5 μL of conjugate solution is added (25 mM Hepes pH 7.5, 0.1 M NaCl, 0.25% Tween-20, 1 mg/mL BSA, 12 mM EDTA, 24 nM Sreptavidin-APC, 342 ng/mL Anti-Dig-Europium). The plates are incubated at RT for at least 120 min. The signal is read on the Envision plate reader (Perkin-Elmer) or equivalent.).
T1 sequence (P08546 whole entry): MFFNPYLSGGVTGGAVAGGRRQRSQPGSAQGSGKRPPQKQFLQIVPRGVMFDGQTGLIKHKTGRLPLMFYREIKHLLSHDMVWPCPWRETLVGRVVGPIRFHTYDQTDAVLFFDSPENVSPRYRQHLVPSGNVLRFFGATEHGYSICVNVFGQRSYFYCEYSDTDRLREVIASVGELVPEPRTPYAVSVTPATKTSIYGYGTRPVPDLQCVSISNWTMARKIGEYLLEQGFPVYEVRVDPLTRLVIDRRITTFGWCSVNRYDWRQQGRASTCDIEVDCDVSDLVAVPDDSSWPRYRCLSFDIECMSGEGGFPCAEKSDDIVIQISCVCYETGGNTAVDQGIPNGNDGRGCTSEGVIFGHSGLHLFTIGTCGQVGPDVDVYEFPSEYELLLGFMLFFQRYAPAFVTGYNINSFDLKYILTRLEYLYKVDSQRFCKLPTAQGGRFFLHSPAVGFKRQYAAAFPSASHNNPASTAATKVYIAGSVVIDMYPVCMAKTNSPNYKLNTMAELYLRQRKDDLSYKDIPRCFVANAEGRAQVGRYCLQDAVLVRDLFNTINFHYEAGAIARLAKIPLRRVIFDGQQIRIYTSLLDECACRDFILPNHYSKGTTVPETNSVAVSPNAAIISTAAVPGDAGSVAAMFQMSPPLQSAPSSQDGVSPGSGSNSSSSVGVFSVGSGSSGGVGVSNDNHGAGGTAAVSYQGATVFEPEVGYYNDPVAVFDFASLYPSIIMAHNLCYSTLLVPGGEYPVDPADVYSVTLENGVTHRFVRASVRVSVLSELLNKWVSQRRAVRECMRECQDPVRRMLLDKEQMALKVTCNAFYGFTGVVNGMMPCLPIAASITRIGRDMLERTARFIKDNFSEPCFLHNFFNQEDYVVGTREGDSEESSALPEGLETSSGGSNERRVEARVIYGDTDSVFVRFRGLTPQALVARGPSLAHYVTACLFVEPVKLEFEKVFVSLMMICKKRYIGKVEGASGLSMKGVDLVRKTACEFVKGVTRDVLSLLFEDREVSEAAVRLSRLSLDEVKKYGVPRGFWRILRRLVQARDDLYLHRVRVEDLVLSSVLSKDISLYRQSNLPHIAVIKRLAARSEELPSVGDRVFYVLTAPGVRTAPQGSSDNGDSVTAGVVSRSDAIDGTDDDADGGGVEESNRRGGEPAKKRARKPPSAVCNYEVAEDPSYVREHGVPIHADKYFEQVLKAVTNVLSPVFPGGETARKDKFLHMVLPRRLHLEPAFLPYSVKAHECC

Compound	pIC50
CN(CC(=O)O)c1ccnc2c1cc(C(=O)NCc1ccc(Cl)cc1)c(=O)n2CC(=O)N1CC(C)(C)C1	7.30
CC1(C)CN(C(=O)Cn2c(=O)c(C(=O)NCc3ccc(Cl)cc3)cc3cc(-c4nn[nH]n4)cnc32)C1	7.52
COc1cc(N)nc2c1cc(C(=O)NCc1ccc(Cl)cc1)c(=O)n2CC(=O)N(C)CC1(CO)COC1	7.66
CC1(F)CN(C(=O)Cn2c(=O)c(C(=O)NCc3ccc(C#N)cc3)cc3cc(-c4c[nH]cn4)cnc32)C1	6.49
CN(CC(C)(C)CO)C(=O)Cn1c(=O)c(C(=O)NCc2ccc(Cl)cc2)cc2ccc(-c3cn[nH]c3)nc21	6.00
Cc1cc(Nc2cnc3c(c2)cc(C(=O)NCc2ccc(Cl)cc2)c(=O)n3CC(=O)N2CC(C)(C)C2)n(C)n1	6.74
COc1cc(CNC(=O)c2cc3cc(-c4cn(C)cn4)cnc3n(CC(=O)N3CC(C)(F)C3)c2=O)ccc1Cl	6.40
CC1(C)CN(C(=O)Cn2c(=O)c(C(=O)NCc3ccc(Cl)cc3)cc3cc(CN4CCNC(C(F)(F)F)C4)cnc32)C1 (centres undefined)	7.13
CC1CN(C(=O)Cn2c(=O)c(C(=O)NCc3ccc(Cl)cc3)cc3c(-c4cnc(N)nc4)c(-c4cnn(C)c4)cnc32)C1	6.92
CC1(C)CN(C(=O)Cn2c(=O)c(C(=O)NCc3ccc(Cl)cc3)cc3c(-c4cnc(N)nc4)ccnc32)C1	7.15
Cc1noc(C2CCN(C(=O)Cn3c(=O)c(C(=O)NCc4ccc(Cl)cc4)cc4cccnc43)C2)n1 (centres undefined)	5.00
CC1(C)CN(C(=O)Cn2c(=O)c(C(=O)NCc3ccc(Cl)cc3)cc3cc(C(=O)NCc4cnccn4)cnc32)C1	7.19
COc1c(-c2sc(C)nc2C)cnc2c1cc(C(=O)NCc1ccc(Cl)cc1)c(=O)n2CC(=O)N1CC(C)(C)C1	5.92
CCn1cc(-c2c(O)cnc3c2cc(C(=O)NCc2ccc(Cl)cc2)c(=O)n3CC(=O)N2CC(C)(C)C2)cn1	6.80
Cn1cc(-c2cc3cc(C(=O)NCc4ccc(Cl)cc4)c(=O)n(CC(=O)N4CC(C)(O)C4)c3nc2N)cn1	6.96
Cn1cc(-c2cnc3c(cc(C(=O)NCc4ccc(Cl)cc4)c(=O)n3CC(=O)N3CC(C)(C)C3)c2N2CC(O)C2)cn1	6.74
COc1c(-c2cnn(C)c2)cnc2c1cc(C(=O)NCc1ccc(Cl)cc1)c(=O)n2CC(=O)N1CCC(CO)C1 (centres undefined)	6.85
CC(=O)NC1CCN(c2cnc3c(c2)cc(C(=O)NCc2ccc(Cl)cc2)c(=O)n3CC(=O)N2CC(C)(C)C2)C1 (centres undefined)	6.72

Compound	pIC50
CS(=O)(=O)C1CN(C(=O)Cn2c(=O)c(C(=O)NCc3ccc(Cl)cc3)cc3cccnc32)C1	4.77
Cc1nc(-c2cnc3c(c2)cc(C(=O)NCc2ccc(Cl)cc2)c(=O)n3CC(=O)N2CC(C)(C)C2)cn1C	6.89
NC(=O)[C@@H]1C[C@H](F)CN1C(=O)CCn1c(=O)c(C(=O)NCc2ccc(Cl)cc2)cc2cccnc21	6.68
COCCNc1ccnc2c1cc(C(=O)NCc1ccc(Cl)cc1)c(=O)n2CC(=O)N1CC(C)(C)C1	6.70
CN(C(=O)Cn1c(=O)c(C(=O)NCc2ccc(Cl)cc2)cc2cccnc21)C1CC(O)C1 (centres undefined)	6.66
NCC1CCN(C(=O)Cn2c(=O)c(C(=O)NCc3ccc(Cl)cc3)cc3cccnc32)C1 (centres undefined)	5.25
O=C(NCc1ccc(Cl)cc1)c1cc2cccnc2n(CC(=O)N2CC3(CC3)C2)c1=O	6.55
CC1(C)CN(C(=O)Cn2c(=O)c(C(=O)NCc3ccc(Cl)cc3)cc3c(CCN4CCC4)ccnc32)C1	6.55
CNc1ccc2cc(C(=O)NCc3ccc(Cl)cc3)c(=O)n(CC(=O)N3CC(C)(O)C3)c2n1	6.92
Cn1nccc1Cc1cnc2c(c1)cc(C(=O)NCc1ccc(Cl)cc1)c(=O)n2CC(=O)N1CC(C)(C)C1	7.19
Cn1cnc(-c2cnc3c(c2)cc(C(=O)NCc2ccc(Cl)cc2)c(=O)n3CC(=O)N2CC(C)(F)C2)c1	6.92
CC1(C)CN(C(=O)Cn2c(=O)c(C(=O)NCc3ccc(Cl)cc3)cc3c(Oc4cccnc4)ccnc32)C1	6.55
CN(CC(C)(C)CO)C(=O)Cn1c(=O)c(C(=O)NCc2ccc(Cl)cc2)cc2ccc(NC3CC3)nc21	6.01
CC(C)c1ccnc2c1cc(C(=O)NCc1ccc(Cl)cc1)c(=O)n2CC(=O)N1CC(C)(C)C1	6.70
Cn1cc(-c2cnc3c(c2)cc(C(=O)NCc2ccc(Cl)cc2)c(=O)n3CC(=O)N2CC(F)(CF)C2)cn1	7.23
CC1(C)CN(C(=O)Cn2c(=O)c(C(=O)NCc3ccc(Cl)cc3)cc3c(OC[C@@H]4CCC(=O)N4)ccnc32)C1	7.21
CC1CN(C(=O)Cn2c(=O)c(C(=O)NCc3ccc(Cl)cc3)cc3cc(OCC4(C#N)CC4)cnc32)C1	6.77
Cn1cnc(-c2cc3cc(C(=O)NCc4ccc(Cl)cc4)c(=O)n(CC(=O)N4CC(C)(F)C4)c3nc2N)c1	7.11

What follows are molecules tested against T1, DNA polymerase catalytic subunit (assay: HCMV Polymerase Scintillation Proximity Assay: The assay conditions are the following: 10 mM HEPES pH 7.5, 25 mM KCl, 7.5 mM NaCl, 5 mM MgCl2, 0.2 mg BSA/mL, 1 mM TCEP, 1.5% glycerol, 2 μM dTTP, 90 nM 3H-dTTP (minor variations in concentration are possible due to specific activity of stock), 26 nM Poly(dA)/190 nM BioTEG-dT19; 5% DMSO. The assay volume is 30 μL. Each reagent is added at a 3× conc.: 10 μL a+10 μL b+10 μL c; a: compound diluted in 10 mM Hepes pH 7.5, 25 mM KCl, 5 mM MgCl2, 1 mM TCEP with 15% DMSO; b: enzyme (GST-UL54) in 10 mM Hepes pH 7.5, 25 mM KCl, 5 mM MgCl2, 22.5 mM NaCl, 4.5% Glycerol, 0.6 mg BSA/mL, 1 mM TCEP w/o DMSO (1 nM GST-UL54 is present in the assay); c: substrate in 10 mM Hepes pH 7.5, 25 mM KCl, 5 mM MgCl2, 1 mM TCEP, 6 μM dTTP, 270 nM 3H-dTTP, 78 nM Poly(dA)/570 nM BioTEG-dT19 w/o DMSO. To perform the assay, 10 μL enzyme solution is added to columns 2-12 and 14-24. The enzyme is substituted by the blank solution (b solution without enzyme) for columns 1 and 13 (blanks). The plate is centrifuged at 200×g for 30 sec. 10 μL of substrate solution is added to each well. The plate is centrifuged at 200×g for 30 sec. The plates are incubated at 37 °C. for 40 min. To stop the reaction, 25 μL of SPA beads (5 mg/mL in 0.5 M EDTA) are added and mixed by pipetting up and down. The plates are incubated at RT for at least 15 min. 35 μL of 5 M CsCl is added to the bottom of each well. TopSeal is applied to the plate and the plate is incubated at RT for at least 90 min prior to reading. The signal is read on TopCount plate reader (Perkin-Elmer) or equivalent.).

Compound	pIC50
CC1(C)CN(C(=O)Cn2c(=O)c(C(=O)NCc3ccc(Cl)c(Cl)c3)cc3cccnc32)C1	4.85
CC1(C)CN(C(=O)Cn2c(=O)c(C(=O)NCc3ccc(Cl)c(C(F)(F)F)c3)cc3cccnc32)C1	4.42
O=C(NCc1ccc(Cl)cc1)c1cc2cccnc2n(CC(=O)N2CCCOCC2)c1=O	4.80

— ChEMBL document CHEMBL3886653, “Cytomegalovirus inhibitor compounds” (2016)
